Assay results as given in ChEMBL document CHEMBL1141267, “Side-chain truncation of apicularen A by olefin cross-metathesis with ethylene” (J Nat Prod, 2007).
Calls of active or inactive are those of the source. The rule behind the calls is not given here.

Tests used:
L929 = test: Cytotoxicity against mouse L929 cells; type: functional, cell-based
[1] = Inhibition of tobacco hornworm V-ATPase; parameters: species or system Manduca sexta

| Compound | Activity (L929) | IC50 [1] [nM] |
| --- | --- | --- |
| C=CC[C@H]1C[C@H]2C[C@H](O)C[C@H](Cc3cccc(O)c3C(=O)O1)O2 | inactive | – |
| CC/C=C\C=C/C(=O)N/C=C/C[C@H]1C[C@H]2C[C@H](O)C[C@H](Cc3cccc(O)c3C(=O)O1)O2 [APICULAREN A] | – | 20 |
